Measurements reported in the Kinase Knowledgebase extract (Sharma et al. 2016).

Each molecule was assayed against EGFR (UniProt P00533).
Sequence of EGFR (P00533 whole entry, looked up): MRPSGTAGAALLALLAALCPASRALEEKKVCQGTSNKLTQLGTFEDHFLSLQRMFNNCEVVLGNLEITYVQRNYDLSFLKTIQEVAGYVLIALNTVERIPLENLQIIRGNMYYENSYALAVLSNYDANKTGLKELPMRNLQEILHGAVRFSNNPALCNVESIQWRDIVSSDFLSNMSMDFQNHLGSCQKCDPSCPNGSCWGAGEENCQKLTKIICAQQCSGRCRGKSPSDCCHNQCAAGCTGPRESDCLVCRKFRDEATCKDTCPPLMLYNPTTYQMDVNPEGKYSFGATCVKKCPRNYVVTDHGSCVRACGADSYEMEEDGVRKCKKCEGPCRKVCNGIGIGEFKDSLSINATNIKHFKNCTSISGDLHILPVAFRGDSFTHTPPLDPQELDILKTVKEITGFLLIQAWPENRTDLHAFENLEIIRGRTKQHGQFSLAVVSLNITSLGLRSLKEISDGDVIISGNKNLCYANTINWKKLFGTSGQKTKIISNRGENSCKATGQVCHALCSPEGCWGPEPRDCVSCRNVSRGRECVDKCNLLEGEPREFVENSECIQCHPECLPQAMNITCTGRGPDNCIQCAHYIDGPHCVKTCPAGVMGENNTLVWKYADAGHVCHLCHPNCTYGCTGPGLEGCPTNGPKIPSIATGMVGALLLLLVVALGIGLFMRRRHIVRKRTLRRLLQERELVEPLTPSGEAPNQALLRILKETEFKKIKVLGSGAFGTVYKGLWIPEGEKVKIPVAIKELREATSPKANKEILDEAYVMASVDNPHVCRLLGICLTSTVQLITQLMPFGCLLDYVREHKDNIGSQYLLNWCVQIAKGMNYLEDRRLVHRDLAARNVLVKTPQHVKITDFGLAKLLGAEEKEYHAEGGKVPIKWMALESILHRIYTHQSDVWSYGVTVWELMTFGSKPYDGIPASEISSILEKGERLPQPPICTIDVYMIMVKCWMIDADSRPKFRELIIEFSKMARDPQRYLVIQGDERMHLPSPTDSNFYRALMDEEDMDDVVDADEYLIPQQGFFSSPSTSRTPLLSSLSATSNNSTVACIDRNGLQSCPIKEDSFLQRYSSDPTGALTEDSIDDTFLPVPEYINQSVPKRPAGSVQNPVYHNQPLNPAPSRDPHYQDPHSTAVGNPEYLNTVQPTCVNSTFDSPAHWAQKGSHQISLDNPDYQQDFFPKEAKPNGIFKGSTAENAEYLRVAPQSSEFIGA
With NCCC(=O)N[C@H](Cc1cc(O)c(O)c(SC[C@H](NC(=O)CC[C@H](N)C(=O)O)C(=O)NCC(=O)O)c1)C(=O)O the inhibition was 8.2.
N[C@H](Cc1cc(O)c(O)c(SC[C@H](N)C(=O)O)c1)C(=O)O showed an inhibition of 0.
In the case of N[C@@H](CSc1cc(C[C@H](N)C(=O)O)cc(O)c1O)C(=O)O, the inhibition was 2.9.
In the case of NCCc1cc(SC[C@H](NC(=O)CC[C@H](N)C(=O)O)C(=O)NCC(=O)O)c(O)c(O)c1SC[C@@H](NC(=O)CC[C@@H](N)C(=O)O)C(=O)NCC(=O)O, the inhibition was 7.6.
With NCCC(=O)N[C@@H](Cc1cc(O)c(O)c(SC[C@H](NC(=O)CC[C@H](N)C(=O)O)C(=O)NCC(=O)O)c1)C(=O)O the inhibition was 2.2.
In the case of N[C@@H](CCC(=O)N[C@@H](CSc1cc(C[C@H](N)C(=O)O)cc(O)c1O)C(=O)NCC(=O)O)C(=O)O, the inhibition was 4.4.
For NCCc1cc(O)c(O)c(SC[C@H](NC(=O)CC[C@H](N)C(=O)O)C(=O)NCC(=O)O)c1, the inhibition was 1.
With N[C@H](Cc1cc(O)c(O)c(SC[C@H](NC(=O)CC[C@H](N)C(=O)O)C(=O)NCC(=O)O)c1)C(=O)O the inhibition was 0.
Work on NCCC(=O)NCCc1cc(O)c(O)c(SC[C@H](NC(=O)CC[C@H](N)C(=O)O)C(=O)NCC(=O)O)c1 yielded an inhibition of 4.9.
Work on C[C@@](Cc1cc(O)c(O)c(SC[C@H](NC(=O)CC[C@H](N)C(=O)O)C(=O)NCC(=O)O)c1)(NC(=O)CCN)C(=O)O yielded an inhibition of 5.2.
